One series relates to EV71. The experiment in a line: In-vitro experiment against EV71 virus (RD cells, MTT). In kind it is cell-based. Particulars: for EC50: Enterovirus A, RD cells infected with 100x TCID50 EV71, compound added after 2 hrs, MTT at 48 hrs; for SI: selectivity index, EV71, RD cells. The method, then: (§1) RD cells were seeded into a 96-well plate (10^4 cells/well), and infected with 100× TCID50 of EV71 viruses. After 2 hrs, various concentrations of the derivative were added. […] Uninfected cells were also given various concentrations of the derivative to determine the CC50.

Series [1] can be described thus: Cytotoxicity in uninfected RD cells (CC50, MTT). In kind it is cell-based. Particulars: human, Table 1. On the procedure:
as §1
RD cells were seeded into a 96-well plate (10^4 cells/well), and infected with 100×TCID50 of CAV16 viruses. After 2 hrs, various concentrations of the derivative were added. […] Uninfected cells were also given various concentrations of the derivative to determine the CC50.

Series [2] in a line: Toxicity test in ICR mice after single administration by intraperitoneal injection. In kind it is in vivo. On the procedure: 22 10-day-old ICR mice were randomly assigned to 17 groups, and given Compound 6 once by intraperitoneal injection at a dosage of 0.625, 1.25, 2.5, 5, 10, 20, 40, 80, 100, 160, 200, 250, 300, 470, 500, 1000, or 2000 mg/kg. 1-2 animals were included in each group, and the male and female mice were administered alternately. […] The dead animals are necropsied and the changes in main organs were observed. On day 1 after administration, the weight of the animals in the 160 mg/kg group is decreases by 0.3 g, and the weight of the animals in the 0.625, 1.25, 2.5, 5, 10, 20, 40, 80, 100 mg/kg group is increased, compared to the day of administration. Under the conditions in this experiment, ICR mice were given Compound 6 once by intraperitoneal injection. The minimum lethal dose was 200 mg/kg and the maximum tolerated dose was 160 mg/kg.
24 10-day-old ICR mice were randomly assigned to 19 groups, and given Compound 6 once by intraperitoneal injection at a dosage of 0.625, 1.25, 2.5, 5, 10, 20, 40, 60, 80, 100, 120, 136, 160, 270, 320, 500, 690, 1000, or 2000 mg/kg. 1-2 animals were included in each group, and the male and female mice were administered alternately. […] The dead animals are necropsied and the changes in main organs were observed. […] Under the conditions in this experiment, ICR mice were given Compound 20 once by intraperitoneal injection.

For series [3], the system named is Salmonella typhimurium TA100. Nature of the series: Test of reverse mutation in histidine-deficient Salmonella typhimurium, strain TA100. In kind it is cell-based. Particulars: 1.5 μg/dish, positive control. The method, then: The mutagenic effect of Compound 6 on the strains TA100 and TA102 was detected by determining the reverse mutation in histidine-deficient Salmonella typhimurium by pre-loaded culture dish method. The dosage of Compound 6 is 8, 40, 200, 1000, or 5000 μg/dish under activated and non-activated conditions, and the mutagenic effects on TA100 and TA102 were tested.

In the series with EV71, `O=C(CCCOc1ccccc1)OC1C(O)C=C2CCN3Cc4cc5c(cc4C1C23)OCO5` (stereo not drawn) [Compound 4, 1-(4-phenoxybutyryl)-lycorine] displayed an EC50 of 1760 nM and an SI of 84.84. The compound further showed a CC50 at 48 h in series [1] of 150 µM.
`Cc1ccc(OCC(=O)OC2C(O)C=C3CCN4Cc5cc6c(cc5C2C34)OCO6)c(C)c1` (stereo not drawn) [Compound 13, 1-(2,4-dimethyl-phenoxyacetyl)-lycorine]: in the series on EV71, the response was half-maximal at 1560 nM (EC50) and the SI was determined as 95.33. Also, the midpoint of cytotoxicity in series [1], the CC50 at 48 h, lay at 149 µM.
The like results for `O=C(COc1ccc(Cl)cc1Cl)OC1C(O)C=C2CCN3Cc4cc5c(cc4C1C23)OCO5` (stereo not drawn) [Compound 16, 1-(2,4-dichloro-phenoxyacetyl)-lycorine] were, in that order, 1710 nM, 75.94 and 130 µM.
The like results for `O=C(COc1cccc(Cl)c1)OC1C(O)C=C2CCN3Cc4cc5c(cc4C1C23)OCO5` (stereo not drawn) [Compound 15, 1-(3-chloro-phenoxyacetyl)-lycorine] were, in that order, 1730 nM, 87.61 and 152 µM.
The like results for `O=C(COc1ccc(Cl)cc1)OC1C(O)C=C2CCN3Cc4cc5c(cc4C1C23)OCO5` (stereo not drawn) [Compound 3, 1-(4-chloro-phenoxyacetyl)-lycorine] were, in that order, 1280 nM, 139.85 and 154 µM.
In the series on EV71, `O=C(COc1ccc([N+](=O)[O-])cc1)OC1C(O)C=C2CCN3Cc4cc5c(cc4C1C23)OCO5` (stereo not drawn) [Compound 8, 1-(4-nitro-phenoxyacetyl)-lycorine] yielded an EC50 of 1230 nM and an SI of 85.67. Moreover, in series [1], half-maximal cytotoxicity (CC50 at 48 h) was put at 105 µM.
The like results for `O=C(CCc1ccccc1)OC1C(O)C=C2CCN3Cc4cc5c(cc4C1C23)OCO5` (stereo not drawn) [Compound 23, 1-(3-phenylpropionyl)-lycorine] were, in that order, 1730 nM, 74.28 and 129 µM.
In the series with EV71, `COc1ccc(OCC(=O)OC2C(O)C=C3CCN4Cc5cc6c(cc5C2C34)OCO6)cc1` (stereo not drawn) [Compound 18, 1-(4-methoxy-phenoxyacetyl)-lycorine] showed an EC50 of 1650 nM and an SI of 97.65. Half-maximal cytotoxicity in series [1] (CC50 at 48 h) was put at 161 µM.
The like results for `O=C(COc1ccc2ccccc2c1)OC1C(O)C=C2CCN3Cc4cc5c(cc4C1C23)OCO5` (stereo not drawn) [Compound 19, 1-(2-naphthyl-phenoxyacetyl)-lycorine] were, in that order, 1970 nM, 82.94 and 163 µM.
With `O=C(CSc1ccc(F)cc1)OC1C(O)C=C2CCN3Cc4cc5c(cc4C1C23)OCO5` (stereo not drawn) [Compound 20, 1-(4-fluoro-phenylthioacetyl)-lycorine], the minimum lethal dose in series [2] (10-day-old ICR mice, single intraperitoneal injection, observed 14 days) was 160 mg/kg. Besides, in series [2] (both sexes, ICR, mouse, in vivo, ip), the MTD at 14 days came to 136 mg/kg. In addition, the “Weight on day 1 after administration” value in series [2] (mouse, in vivo, ip, 0.625 mg/kg) was found to be 5.2; in series [2] (mouse, in vivo, ip, 1.25 mg/kg) it was 6.6; in series [2] (mouse, in vivo, ip, 5 mg/kg), 6.4; in series [2] (mouse, in vivo, ip, 10 mg/kg), 6.5; in series [2] (mouse, in vivo, ip, 20 mg/kg), 5.9; in series [2] (mouse, in vivo, ip, 40 mg/kg) it was 6.8. Further, the “Weight on day 1 after administration” value in series [2] (mouse, in vivo, ip, 60 mg/kg) worked out at 7; in series [2] (mouse, in vivo, ip, 100 mg/kg), 6.8; in series [2] (mouse, in vivo, ip, 136 mg/kg) it was 6.7.
In the series on EV71, `O=C(COc1ccccc1Cl)OC1C(O)C=C2CCN3Cc4cc5c(cc4C1C23)OCO5` (stereo not drawn) [Compound 14, 1-(2-chloro-phenoxyacetyl)-lycorine] displayed a half-maximal effective concentration (EC50) of 1630 nM and an SI of 89.10. The compound further had a CC50 at 48 h in series [1] of 145 µM.
In the series with EV71, `O=C(COc1ccc(Br)cc1)OC1C(O)C=C2CCN3Cc4cc5c(cc4C1C23)OCO5` (stereo not drawn) [Compound 7, 1-(4-bromo-phenoxyacetyl)-lycorine] displayed an EC50 of 1470 nM and an SI of 70.36. The compound also showed a CC50 at 48 h in series [1] of 103 µM.
The like results for `O=C(CCOc1ccccc1)OC1C(O)C=C2CCN3Cc4cc5c(cc4C1C23)OCO5` (stereo not drawn) [Compound 5, 1-(3-phenoxypropionyl)-lycorine] were, in that order, 1450 nM, 92.43 and 134 µM.
The like results for `O=C(CSc1ccc(Cl)cc1)OC1C(O)C=C2CCN3Cc4cc5c(cc4C1C23)OCO5` (stereo not drawn) [Compound 11, 1-(4-chloro-phenylthioacetyl)-lycorine] were, in that order, 1460 nM, 89.40 and 131 µM.
In the series on EV71, `CC(C)c1ccc(OCC(=O)OC2C(O)C=C3CCN4Cc5cc6c(cc5C2C34)OCO6)cc1` (stereo not drawn) [Compound 10, 1-(4-isopropyl-phenoxyacetyl)-lycorine] gave an EC50 of 1670 nM and an SI of 60.63. Besides, in series [1], the CC50 at 48 h is 101 µM.
In the series with EV71, `O=C(COc1ccccc1[N+](=O)[O-])OC1C(O)C=C2CCN3Cc4cc5c(cc4C1C23)OCO5` (stereo not drawn) [Compound 17] came in with an EC50 of 1710 nM and an SI of 91.37. The compound further gave a CC50 at 48 h in series [1] of 156 µM.
In the series with EV71, `Cc1ccc(OCC(=O)OC2C(O)C=C3CCN4Cc5cc6c(cc5C2C34)OCO6)cc1` (stereo not drawn) [Compound 12, 1-(4-methylphenoxyacetyl)-lycorine] gave an EC50 of 1530 nM and an SI of 87.73. Further, the CC50 at 48 h in series [1] stood at 134 µM.
For the compound `[N-]=[N+]=[N-].[Na+]` [NaN3, reference compound], the “Number of colonies TA100(−S9)” value in series [3] is listed as greater than 1000.
In the series with EV71, `O=C(COc1ccc(I)cc1)OC1C(O)C=C2CCN3Cc4cc5c(cc4C1C23)OCO5` (stereo not drawn) [Compound 9, 1-(4-iodo-phenoxyacetyl)-lycorine] displayed an EC50 of 1840 nM and an SI of 54.15. This compound registered a CC50 at 48 h in series [1] of 99.6 µM.

For the origin of these results see patent US11932653B2, “Lycorine derivative, and pharmaceutical composition and use thereof” (priority 2018, dated 2024).
